Key:
Adenosine receptor A1 = target: T1, Adenosine receptor A1 (Homo sapiens, UniProt P30542)
T1 sequence (P30542 whole entry): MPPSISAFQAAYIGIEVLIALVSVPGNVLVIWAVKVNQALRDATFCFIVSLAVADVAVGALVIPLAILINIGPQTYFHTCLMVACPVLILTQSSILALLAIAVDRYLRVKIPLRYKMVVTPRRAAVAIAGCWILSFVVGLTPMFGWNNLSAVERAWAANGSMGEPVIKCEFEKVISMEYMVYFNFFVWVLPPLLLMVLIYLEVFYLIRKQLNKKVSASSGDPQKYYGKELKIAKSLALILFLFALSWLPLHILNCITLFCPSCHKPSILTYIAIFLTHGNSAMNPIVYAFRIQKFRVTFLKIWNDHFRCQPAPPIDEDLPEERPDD

Androgen receptor [1] = target: T2, Androgen receptor (Homo sapiens, UniProt P10275)
T2 sequence (P10275 whole entry): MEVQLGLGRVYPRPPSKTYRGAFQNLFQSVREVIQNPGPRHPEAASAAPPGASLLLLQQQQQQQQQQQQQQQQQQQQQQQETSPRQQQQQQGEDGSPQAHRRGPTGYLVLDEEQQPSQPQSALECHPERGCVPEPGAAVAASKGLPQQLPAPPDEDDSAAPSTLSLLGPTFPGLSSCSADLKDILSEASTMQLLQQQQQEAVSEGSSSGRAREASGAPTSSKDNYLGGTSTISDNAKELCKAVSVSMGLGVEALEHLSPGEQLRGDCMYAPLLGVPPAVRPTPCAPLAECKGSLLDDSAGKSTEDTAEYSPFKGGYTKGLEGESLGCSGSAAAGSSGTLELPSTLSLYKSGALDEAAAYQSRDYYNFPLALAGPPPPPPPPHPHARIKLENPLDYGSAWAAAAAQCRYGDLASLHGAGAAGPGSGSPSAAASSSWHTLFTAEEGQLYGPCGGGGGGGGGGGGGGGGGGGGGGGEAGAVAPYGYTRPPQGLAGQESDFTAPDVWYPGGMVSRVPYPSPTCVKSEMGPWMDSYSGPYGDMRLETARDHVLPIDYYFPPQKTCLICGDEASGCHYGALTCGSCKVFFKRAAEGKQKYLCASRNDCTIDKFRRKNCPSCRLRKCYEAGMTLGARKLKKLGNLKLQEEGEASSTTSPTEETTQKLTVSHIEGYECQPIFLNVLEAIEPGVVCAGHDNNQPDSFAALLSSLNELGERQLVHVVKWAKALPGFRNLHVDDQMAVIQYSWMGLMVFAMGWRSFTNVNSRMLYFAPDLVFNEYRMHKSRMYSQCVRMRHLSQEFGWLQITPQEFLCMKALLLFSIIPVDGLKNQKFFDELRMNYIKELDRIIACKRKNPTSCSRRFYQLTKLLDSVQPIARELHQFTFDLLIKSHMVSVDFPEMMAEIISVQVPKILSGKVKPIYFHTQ

Androgen receptor [2] = target: T3, Androgen receptor (Rattus norvegicus, UniProt P15207)
T3 sequence (P15207 whole entry): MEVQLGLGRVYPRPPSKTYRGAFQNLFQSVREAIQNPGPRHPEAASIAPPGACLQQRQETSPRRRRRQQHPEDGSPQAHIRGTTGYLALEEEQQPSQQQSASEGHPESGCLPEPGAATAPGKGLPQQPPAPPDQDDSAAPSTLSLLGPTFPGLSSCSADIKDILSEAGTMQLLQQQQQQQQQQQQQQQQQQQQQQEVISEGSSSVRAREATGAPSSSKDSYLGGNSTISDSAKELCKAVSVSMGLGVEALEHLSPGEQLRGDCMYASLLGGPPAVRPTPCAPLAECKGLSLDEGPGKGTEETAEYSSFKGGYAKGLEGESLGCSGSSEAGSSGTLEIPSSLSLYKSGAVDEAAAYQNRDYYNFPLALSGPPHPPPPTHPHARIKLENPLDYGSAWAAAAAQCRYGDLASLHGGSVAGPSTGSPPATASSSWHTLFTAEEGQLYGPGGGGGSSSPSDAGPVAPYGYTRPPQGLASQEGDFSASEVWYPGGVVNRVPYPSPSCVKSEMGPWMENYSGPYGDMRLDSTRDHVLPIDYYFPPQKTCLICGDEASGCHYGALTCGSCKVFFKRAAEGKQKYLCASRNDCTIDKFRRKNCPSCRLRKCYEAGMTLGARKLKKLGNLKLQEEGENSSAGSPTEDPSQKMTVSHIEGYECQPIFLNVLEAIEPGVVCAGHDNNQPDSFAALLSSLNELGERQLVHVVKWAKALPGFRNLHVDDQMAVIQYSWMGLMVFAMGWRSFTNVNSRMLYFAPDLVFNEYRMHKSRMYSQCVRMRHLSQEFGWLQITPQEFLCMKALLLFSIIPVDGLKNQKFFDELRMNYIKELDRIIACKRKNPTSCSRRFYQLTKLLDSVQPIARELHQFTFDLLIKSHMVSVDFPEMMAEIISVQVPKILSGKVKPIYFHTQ

Androgen receptor [3] = target: T3, Androgen receptor; format: functional
[4] = target: T4, Muscarinic acetylcholine receptor M5 (Homo sapiens, UniProt P08912)
T4 sequence (P08912 whole entry): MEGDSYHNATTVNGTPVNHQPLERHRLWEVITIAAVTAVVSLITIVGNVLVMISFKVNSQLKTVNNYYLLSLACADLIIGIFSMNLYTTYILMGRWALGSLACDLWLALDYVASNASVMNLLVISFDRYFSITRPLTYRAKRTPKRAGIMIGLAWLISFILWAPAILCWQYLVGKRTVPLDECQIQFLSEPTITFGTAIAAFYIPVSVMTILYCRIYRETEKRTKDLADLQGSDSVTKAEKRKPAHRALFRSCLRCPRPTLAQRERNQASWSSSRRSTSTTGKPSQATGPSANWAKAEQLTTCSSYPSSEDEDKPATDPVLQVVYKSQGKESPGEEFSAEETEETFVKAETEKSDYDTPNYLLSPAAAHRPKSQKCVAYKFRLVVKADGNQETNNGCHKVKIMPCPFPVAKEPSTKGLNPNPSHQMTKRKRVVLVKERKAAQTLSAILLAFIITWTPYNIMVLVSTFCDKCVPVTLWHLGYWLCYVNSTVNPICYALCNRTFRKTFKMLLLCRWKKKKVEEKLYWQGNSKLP

[5] = target: Voltage-dependent L-type calcium channel subunit alpha-1C (Homo sapiens, UniProt Q13936); format: functional, cell-based
Also: assay procedure not described here.

Sequence of Voltage-dependent L-type calcium channel subunit alpha-1C (Q13936 whole entry): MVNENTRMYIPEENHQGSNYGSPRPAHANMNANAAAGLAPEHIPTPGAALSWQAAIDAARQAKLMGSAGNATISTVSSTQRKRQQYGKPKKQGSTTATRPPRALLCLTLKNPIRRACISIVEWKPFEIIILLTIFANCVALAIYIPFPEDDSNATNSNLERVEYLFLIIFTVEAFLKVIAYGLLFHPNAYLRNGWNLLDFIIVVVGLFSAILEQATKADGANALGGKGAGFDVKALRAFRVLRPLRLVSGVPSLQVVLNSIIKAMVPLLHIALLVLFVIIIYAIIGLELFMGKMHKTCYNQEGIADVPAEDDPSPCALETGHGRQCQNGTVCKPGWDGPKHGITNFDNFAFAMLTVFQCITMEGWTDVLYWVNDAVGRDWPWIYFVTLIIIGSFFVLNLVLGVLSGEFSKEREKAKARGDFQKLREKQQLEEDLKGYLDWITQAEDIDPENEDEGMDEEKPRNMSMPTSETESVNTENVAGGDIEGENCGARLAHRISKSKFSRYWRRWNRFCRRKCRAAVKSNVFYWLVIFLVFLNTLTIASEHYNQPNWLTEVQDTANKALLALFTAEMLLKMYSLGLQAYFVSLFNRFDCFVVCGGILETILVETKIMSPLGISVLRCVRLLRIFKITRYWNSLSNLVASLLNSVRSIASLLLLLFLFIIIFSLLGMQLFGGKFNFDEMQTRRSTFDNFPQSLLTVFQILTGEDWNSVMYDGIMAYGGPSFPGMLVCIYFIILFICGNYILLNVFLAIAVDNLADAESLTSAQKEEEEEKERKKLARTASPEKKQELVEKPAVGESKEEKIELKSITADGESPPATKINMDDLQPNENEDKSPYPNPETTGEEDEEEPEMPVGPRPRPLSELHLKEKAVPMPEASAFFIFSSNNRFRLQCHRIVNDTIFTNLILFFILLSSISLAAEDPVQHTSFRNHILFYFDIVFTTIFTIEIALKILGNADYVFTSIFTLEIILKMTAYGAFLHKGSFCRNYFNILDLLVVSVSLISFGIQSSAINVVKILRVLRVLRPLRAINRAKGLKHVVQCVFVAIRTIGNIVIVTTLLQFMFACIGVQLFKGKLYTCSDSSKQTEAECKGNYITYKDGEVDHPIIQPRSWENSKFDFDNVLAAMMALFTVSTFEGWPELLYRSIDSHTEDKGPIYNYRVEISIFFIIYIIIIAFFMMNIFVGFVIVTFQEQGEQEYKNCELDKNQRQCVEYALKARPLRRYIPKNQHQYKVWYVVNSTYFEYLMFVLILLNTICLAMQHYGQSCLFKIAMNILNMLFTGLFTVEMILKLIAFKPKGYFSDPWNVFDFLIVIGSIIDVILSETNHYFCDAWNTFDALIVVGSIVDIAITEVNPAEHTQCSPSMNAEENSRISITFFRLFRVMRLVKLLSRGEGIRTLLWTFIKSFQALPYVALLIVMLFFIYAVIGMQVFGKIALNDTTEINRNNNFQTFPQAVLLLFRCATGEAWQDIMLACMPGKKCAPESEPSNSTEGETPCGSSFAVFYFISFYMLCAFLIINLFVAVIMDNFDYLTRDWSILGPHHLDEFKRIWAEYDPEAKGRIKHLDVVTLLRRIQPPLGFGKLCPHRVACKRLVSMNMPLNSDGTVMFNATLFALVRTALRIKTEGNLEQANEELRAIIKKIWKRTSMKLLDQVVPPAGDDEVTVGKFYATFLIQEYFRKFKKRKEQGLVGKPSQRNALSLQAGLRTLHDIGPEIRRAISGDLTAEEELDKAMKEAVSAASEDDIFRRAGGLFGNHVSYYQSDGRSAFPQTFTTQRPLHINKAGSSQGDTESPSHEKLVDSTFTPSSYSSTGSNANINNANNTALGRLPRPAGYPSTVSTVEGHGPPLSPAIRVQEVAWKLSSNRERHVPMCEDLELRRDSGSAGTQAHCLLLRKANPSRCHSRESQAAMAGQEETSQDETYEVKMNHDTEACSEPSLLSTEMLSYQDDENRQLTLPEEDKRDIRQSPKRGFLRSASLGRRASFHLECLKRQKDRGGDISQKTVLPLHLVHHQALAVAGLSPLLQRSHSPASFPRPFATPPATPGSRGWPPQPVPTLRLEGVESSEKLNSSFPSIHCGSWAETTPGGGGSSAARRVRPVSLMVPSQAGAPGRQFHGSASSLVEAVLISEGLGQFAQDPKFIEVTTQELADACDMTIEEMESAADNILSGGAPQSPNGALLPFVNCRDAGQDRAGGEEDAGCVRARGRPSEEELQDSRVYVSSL

With `Cc1cc2c(cc1CC(=O)c1sccc1S(=O)(=O)Nc1onc(C)c1Cl)OCO2` [SITAXENTAN] the AC50 (Adenosine receptor A1) was over 30 µM.
In the case of `Nc1nc(N)c2nc(-c3ccccc3)c(N)nc2n1`, the AC50 (Androgen receptor [1]) is reported as over 30 µM, the AC50 (Androgen receptor [2]) is reported as over 30 µM and the AC50 (Androgen receptor [3]) is reported as over 30 µM. It also gave an AC50 [4] of over 10 µM.
In the case of `NS(=O)(=O)c1cc2c(cc1Cl)NCNS2(=O)=O` [HYDROCHLOROTHIAZIDE], the AC50 [4] is reported as over 10 µM.
`CC(=O)OCC(=O)[C@@]1(O)CC[C@H]2[C@@H]3CCC4=CC(=O)CC[C@]4(C)[C@H]3C(=O)C[C@@]21C` [CORTISONE ACETATE] showed an AC50 (Adenosine receptor A1) of over 30 µM.
With `C(=N\NC1=NCCN1)/c1c2ccccc2c(/C=N/NC2=NCCN2)c2ccccc12` [BISANTRENE] the AC50 (Androgen receptor [1]) was over 30 µM.
Molecule `O=C1c2c(O)c(=O)ccn2N([C@@H]2c3ccccc3SCc3c2ccc(F)c3F)[C@@H]2COCCN12` [BALOXAVIR] has an AC50 [5] of over 50 µM and an AC50 (Androgen receptor [1]) of over 30 µM.
Molecule `C[C@@H]1O[C@@H]1P(=O)(O)O` [FOSFOMYCIN] has an AC50 (Androgen receptor [2]) of over 30 µM.
Work on `OCc1cc([C@@H](O)CNCCCCCCOCCOCc2c(Cl)cccc2Cl)ccc1O` [VILANTEROL] yielded an AC50 (Androgen receptor [3]) of over 30 µM.
`COc1cc(Nc2c(C#N)cnc3cc(OCCCN4CCN(C)CC4)c(OC)cc23)c(Cl)cc1Cl` [BOSUTINIB] gave an AC50 [4] of 12.1 µM and an AC50 (Adenosine receptor A1) of over 30 µM.
`CC(C)NCC(O)COc1ccc(COCCOC(C)C)cc1` (centres undefined) [BISOPROLOL] showed an AC50 (Androgen receptor [2]) of over 30 µM.
Molecule `CCC(=O)c1c(O)cc(O)cc1O` [FLOPROPIONE] has an AC50 (Androgen receptor [1]) of over 30 µM.
In the case of `CC(N)Cc1ccccc1` (centres undefined) [AMPHETAMINE], the AC50 (Androgen receptor [2]) is reported as over 30 µM and the AC50 (Androgen receptor [3]) is reported as over 30 µM.
With `C#C[C@]1(O)CC[C@H]2[C@@H]3CCc4cc(O)ccc4[C@H]3CC[C@@]21C` [ETHINYL ESTRADIOL] the AC50 (Adenosine receptor A1) was over 30 µM.
In the case of `CCC(=O)O[C@H]1[C@H](O[C@@H]2[C@@H](C)[C@H](O[C@H]3C[C@@](C)(OC)[C@@H](O)[C@H](C)O3)[C@@H](C)C(=O)O[C@H](CC)[C@@](C)(O)[C@H](O)[C@@H](C)C(=O)[C@H](C)C[C@@]2(C)O)O[C@H](C)C[C@@H]1N(C)C` [ERYTHROMYCIN PROPIONATE], the AC50 (Adenosine receptor A1) is reported as over 30 µM.
In the case of `CS(=O)(=O)c1ccc([C@@H](O)[C@@H](CO)NC(=O)C(Cl)Cl)cc1` [THIAMPHENICOL], the AC50 [5] is reported as over 50 µM.
`CC(C)NNC(=O)c1ccncc1` [IPRONIAZID] showed an AC50 (Androgen receptor [3]) of over 30 µM.
With `COC(=O)N[C@H](C(=O)N1CCC[C@H]1c1nc(-c2ccc(-c3ccc(-c4c[nH]c([C@@H]5CCCN5C(=O)[C@@H](NC(=O)OC)C(C)C)n4)cc3)cc2)c[nH]1)C(C)C` the AC50 [5] was over 30 µM and the AC50 (Androgen receptor [3]) was over 30 µM.
`CO/N=C(\C(=O)N[C@@H]1C(=O)N2C(C(=O)[O-])=C(C[N+]3(C)CCCC3)CS[C@H]12)c1csc(N)n1` gave an AC50 (Androgen receptor [3]) of over 300 µM.
In the case of `CCOC(=O)[C@H](CCc1ccccc1)N[C@@H](C)C(=O)N1CCC[C@H]1C(=O)O`, the AC50 [4] is reported as over 10 µM.
Molecule `OCCN1CCN(CCCN2c3ccccc3C=Cc3ccccc32)CC1` [OPIPRAMOL] has an AC50 (Adenosine receptor A1) of over 30 µM.
`O=C(CCCCCCC(=O)Nc1ccccc1)NO` [VORINOSTAT] gave an AC50 [4] of over 10 µM.
Molecule `CCCS(=O)(=O)Nc1ccc(F)c(C(=O)c2c[nH]c3ncc(-c4ccc(Cl)cc4)cc23)c1F` [VEMURAFENIB] has an AC50 [5] of over 30 µM and an AC50 (Androgen receptor [3]) of over 30 µM.
Molecule `CC(C(=O)O)c1ccc(N2CC=CC2)c(Cl)c1` (centres undefined) [PIRPROFEN] has an AC50 (Androgen receptor [1]) of over 30 µM and an AC50 (Androgen receptor [2]) of over 30 µM.
`C[C@H]1O[C@H](O[C@H]2[C@H](O)[C@@H](O)[C@@H](O[C@H]3[C@H](O)[C@@H](O)C(O)O[C@@H]3CO)O[C@@H]2CO)[C@H](O)[C@@H](O)[C@@H]1N[C@H]1C=C(CO)[C@@H](O)[C@H](O)[C@H]1O` (some centres undefined) [ACARBOSE] gave an AC50 [4] of over 10 µM.
`C[C@H]1C[C@@H]2[C@H]([C@@H](O)C[C@@]3(C)[C@H]2CC[C@]3(O)C(=O)CO)[C@@]2(C)C=CC(=O)C=C12` [METHYLPREDNISOLONE] showed an AC50 (Androgen receptor [2]) of over 30 µM.
`NC(N)=Nc1nc(CSCCC(N)=NS(N)(=O)=O)cs1` [FAMOTIDINE] was tested, and the AC50 [4] was over 10 µM.
Work on `Cc1ccc(O)c2ncccc12` [TILIQUINOL] yielded an AC50 (Androgen receptor [1]) of over 30 µM.
`CC(C)OC(=O)[C@H](C)N[P@](=O)(OC[C@H]1O[C@@H](n2ccc(=O)[nH]c2=O)[C@](C)(F)[C@@H]1O)Oc1ccccc1` [SOFOSBUVIR] showed an AC50 [5] of over 50 µM and an AC50 (Androgen receptor [1]) of over 30 µM.
Molecule `CC(=O)OC[C@H]1O[C@@H](n2ccc(=O)[nH]c2=O)[C@H](OC(C)=O)[C@@H]1OC(C)=O` [URIDINE TRIACETATE] has an AC50 (Androgen receptor [1]) of over 30 µM.
In the case of `Cc1cccc(C)c1OCC(C)N` (centres undefined) [MEXILETINE], the AC50 [5] is reported as over 50 µM.
Work on `COc1ccc2c(c1)C(=O)N(CCc1ccc(S(=O)(=O)NC(=O)NC3CCCCC3)cc1)C(=O)C2(C)C` [GLIQUIDONE] yielded an AC50 (Androgen receptor [3]) of over 30 µM.
In the case of `CCO/N=C(\C(=O)N[C@@H]1C(=O)N2C(C(=O)[O-])=C(Sc3nc(-c4cc[n+](C)cc4)cs3)CS[C@H]12)c1nsc(N)n1` [CEFTAROLINE], the AC50 (Androgen receptor [1]) is reported as over 30 µM.
`CCOC(=O)N[C@@H]1CC[C@@H]2[C@@H](C1)C[C@H]1C(=O)O[C@H](C)[C@H]1[C@H]2/C=C/c1ccc(-c2cccc(F)c2)cn1` [VORAPAXAR] gave an AC50 [5] of over 50 µM and an AC50 (Androgen receptor [1]) of over 30 µM.
Work on `OC[C@@H](O)[C@@H](O)[C@H](O)[C@H](O)CO` [MANNITOL] yielded an AC50 (Adenosine receptor A1) of over 30 µM.
Work on `COc1cc2c(cc1OC)C(=O)C(CC1CCN(Cc3ccccc3)CC1)C2` (centres undefined) [DONEPEZIL] yielded an AC50 (Androgen receptor [1]) of over 30 µM, an AC50 (Androgen receptor [2]) of over 30 µM and an AC50 [4] of 15.4 µM.
In the case of `O=C(NC[C@H]1CN(c2ccc(N3CCOCC3=O)cc2)C(=O)O1)c1ccc(Cl)s1` [RIVAROXABAN], the AC50 (Adenosine receptor A1) is reported as over 30 µM.

From ChEMBL document CHEMBL5291721, “A preclinical secondary pharmacology resource illuminates target-adverse drug reaction associations of marketed drugs” (Nat Commun, 2023)
